Experiment: xn = mol fraction of the nth substance listed

[Cl][Al]([Cl])[Cl] + CC[n+]1ccn(C)c1.[Cl-]
101 kPa
Conditions | electrical conductivity [S/m]
263 K, frequency 0.1 MHz, x1 = 0.5455 | 0.14
263 K, frequency 0.1 MHz, x1 = 0.5652 | 0.13
263 K, frequency 0.1 MHz, x1 = 0.5833 | 0.57
263 K, frequency 0.1 MHz, x1 = 0.6 | 0.36
263 K, frequency 0.1 MHz, x1 = 0.6296 | 0.35
273 K, frequency 0.1 MHz, x1 = 0.5455 | 0.59
273 K, frequency 0.1 MHz, x1 = 0.5652 | 0.92
273 K, frequency 0.1 MHz, x1 = 0.5833 | 0.84
273 K, frequency 0.1 MHz, x1 = 0.6 | 0.53
273 K, frequency 0.1 MHz, x1 = 0.6296 | 0.52
283 K, frequency 0.1 MHz, x1 = 0.5238 | 1.24
283 K, frequency 0.1 MHz, x1 = 0.5455 | 1.34
283 K, frequency 0.1 MHz, x1 = 0.5652 | 1.33
283 K, frequency 0.1 MHz, x1 = 0.5833 | 1.13
283 K, frequency 0.1 MHz, x1 = 0.6 | 0.73
283 K, frequency 0.1 MHz, x1 = 0.6296 | 0.73
293 K, frequency 0.1 MHz, x1 = 0.5238 | 1.58
293 K, frequency 0.1 MHz, x1 = 0.5455 | 1.81
293 K, frequency 0.1 MHz, x1 = 0.5652 | 1.73
293 K, frequency 0.1 MHz, x1 = 0.6 | 0.96
293 K, frequency 0.1 MHz, x1 = 0.6296 | 0.99
303 K, frequency 0.1 MHz, x1 = 0.5238 | 2.05
303 K, frequency 0.1 MHz, x1 = 0.5455 | 2.47
303 K, frequency 0.1 MHz, x1 = 0.5652 | 2.3
303 K, frequency 0.1 MHz, x1 = 0.5833 | 1.89
303 K, frequency 0.1 MHz, x1 = 0.6 | 1.25
303 K, frequency 0.1 MHz, x1 = 0.6296 | 1.29
303.15 K, frequency 0 MHz, x1 = 0.6 | 1.92
303.15 K, frequency 0 MHz, x1 = 0.63 | 1.8
303.15 K, frequency 0 MHz, x1 = 0.67 | 1.64
306.15 K, frequency 1 MHz, x2 = 0.556 | 1.46
306.15 K, frequency 1 MHz, x2 = 0.67 | 0.409
313 K, frequency 0.1 MHz, x1 = 0.5238 | 2.58
313 K, frequency 0.1 MHz, x1 = 0.5652 | 2.95
313 K, frequency 0.1 MHz, x1 = 0.5833 | 2.34
313 K, frequency 0.1 MHz, x1 = 0.6 | 1.64
313 K, frequency 0.1 MHz, x1 = 0.6296 | 1.52
323 K, frequency 0.1 MHz, x1 = 0.5238 | 3.35
323 K, frequency 0.1 MHz, x1 = 0.5455 | 3.65
323 K, frequency 0.1 MHz, x1 = 0.5652 | 3.37
323 K, frequency 0.1 MHz, x1 = 0.5833 | 2.85
323 K, frequency 0.1 MHz, x1 = 0.6 | 2.18
323 K, frequency 0.1 MHz, x1 = 0.6296 | 1.83
333 K, frequency 0.1 MHz, x1 = 0.5238 | 4.09
333 K, frequency 0.1 MHz, x1 = 0.5455 | 3.96
333 K, frequency 0.1 MHz, x1 = 0.5652 | 4.11
333 K, frequency 0.1 MHz, x1 = 0.5833 | 3.04
333 K, frequency 0.1 MHz, x1 = 0.6 | 2.4
333 K, frequency 0.1 MHz, x1 = 0.6296 | 2.16
342.1 K, frequency 0.1 MHz, x1 = 0.5238 | 5.15
343 K, frequency 0.1 MHz, x1 = 0.5455 | 4.63
343 K, frequency 0.1 MHz, x1 = 0.5652 | 4.72
343 K, frequency 0.1 MHz, x1 = 0.5833 | 3.21
343 K, frequency 0.1 MHz, x1 = 0.6 | 2.82
343 K, frequency 0.1 MHz, x1 = 0.6296 | 2.49
352.1 K, frequency 0.1 MHz, x1 = 0.5238 | 6.3
353 K, frequency 0.1 MHz, x1 = 0.5652 | 5.34
353 K, frequency 0.1 MHz, x1 = 0.5833 | 4.2
353 K, frequency 0.1 MHz, x1 = 0.6 | 3.2
353 K, frequency 0.1 MHz, x1 = 0.6296 | 2.95
362.1 K, frequency 0.1 MHz, x1 = 0.6 | 3.69
363 K, frequency 0.1 MHz, x1 = 0.5238 | 6.4
363 K, frequency 0.1 MHz, x1 = 0.5455 | 5.69
363 K, frequency 0.1 MHz, x1 = 0.5652 | 5.87
363 K, frequency 0.1 MHz, x1 = 0.5833 | 4.33
363 K, frequency 0.1 MHz, x1 = 0.6296 | 3.3

101.3 kPa
Conditions | electrical conductivity [S/m]
270.1 K, x2 = 0.3333 | 0.533
270.4 K, x2 = 0.4348 | 0.75
270.6 K, x2 = 0.5556 | 0.36
271.1 K, x2 = 0.3636 | 0.6
271.1 K, x2 = 0.4 | 0.702
275.6 K, x2 = 0.4 | 0.822
275.6 K, x2 = 0.5263 | 0.832
275.6 K, x2 = 0.5556 | 0.471
276.1 K, x2 = 0.3333 | 0.711
276.1 K, x2 = 0.4348 | 0.901
277.1 K, x2 = 0.3636 | 0.798
280.6 K, x2 = 0.4348 | 1.01
281.1 K, x2 = 0.3636 | 0.946
281.1 K, x2 = 0.4 | 1.06
281.1 K, x2 = 0.4762 | 1.18
281.1 K, x2 = 0.5 | 1.28
281.1 K, x2 = 0.5263 | 1.03
281.1 K, x2 = 0.5556 | 0.595
282.1 K, x2 = 0.3333 | 0.896
288.15 K, x2 = 0.4348 | 1.34
290.15 K, x2 = 0.3636 | 1.33
290.15 K, x2 = 0.4762 | 1.59
290.65 K, x2 = 0.4 | 1.4
290.65 K, x2 = 0.5263 | 1.4
290.65 K, x2 = 0.5556 | 0.87
291.15 K, x2 = 0.5 | 1.83
292.15 K, x2 = 0.3333 | 1.23
303.15 K, x2 = 0.3333 | 1.65
303.15 K, x2 = 0.3636 | 1.82
303.15 K, x2 = 0.5263 | 1.93
303.15 K, x2 = 0.5556 | 1.33
304.15 K, x2 = 0.4762 | 2.42
304.15 K, x2 = 0.5 | 2.57
305.15 K, x2 = 0.4 | 2.03
305.15 K, x2 = 0.4348 | 2.24
309.15 K, x2 = 0.5556 | 1.57
312.65 K, x2 = 0.5263 | 2.46
314.15 K, x2 = 0.4348 | 2.69
314.65 K, x2 = 0.4 | 2.48
315.65 K, x2 = 0.3636 | 2.3
316.15 K, x2 = 0.3333 | 2.12
317.65 K, x2 = 0.4762 | 3.2
317.65 K, x2 = 0.5 | 3.3
320.15 K, x2 = 0.5556 | 2.21
321.15 K, x2 = 0.5263 | 3.01
323.15 K, x2 = 0.3333 | 2.46
323.15 K, x2 = 0.3636 | 2.64
323.15 K, x2 = 0.4 | 2.92
324.15 K, x2 = 0.4348 | 3.2
324.15 K, x2 = 0.4762 | 3.63
324.15 K, x2 = 0.5 | 3.79
330.15 K, x2 = 0.5556 | 2.71
331.15 K, x2 = 0.4 | 3.4
331.15 K, x2 = 0.5263 | 3.65
332.15 K, x2 = 0.4348 | 3.7
332.15 K, x2 = 0.4762 | 4.14
332.65 K, x2 = 0.5 | 4.37
333.15 K, x2 = 0.3333 | 2.93
334.15 K, x2 = 0.3636 | 3.18
341.15 K, x2 = 0.4348 | 4.28
342.15 K, x2 = 0.4 | 4.02
342.15 K, x2 = 0.4762 | 4.9
342.15 K, x2 = 0.5 | 5.03
342.15 K, x2 = 0.5263 | 4.39
343.15 K, x2 = 0.3333 | 3.38
343.15 K, x2 = 0.3636 | 3.64
344.15 K, x2 = 0.5556 | 3.63
350.65 K, x2 = 0.4 | 4.54
351.15 K, x2 = 0.4348 | 4.88
352.15 K, x2 = 0.5263 | 5.04
353.15 K, x2 = 0.3333 | 3.88
353.15 K, x2 = 0.3636 | 4.2
353.15 K, x2 = 0.4762 | 5.63
353.15 K, x2 = 0.5 | 5.79
353.15 K, x2 = 0.5556 | 4.27
361.15 K, x2 = 0.4 | 5.18
361.15 K, x2 = 0.4348 | 5.54
361.15 K, x2 = 0.4762 | 6.35
361.15 K, x2 = 0.5 | 6.43
363.15 K, x2 = 0.3333 | 4.45
363.15 K, x2 = 0.3636 | 4.8
363.15 K, x2 = 0.5263 | 5.91
364.15 K, x2 = 0.5556 | 5.09
370.15 K, x2 = 0.3333 | 4.82
370.15 K, x2 = 0.3636 | 5.19
371.15 K, x2 = 0.4 | 5.84
371.15 K, x2 = 0.4348 | 6.23
371.15 K, x2 = 0.4762 | 7.02
371.15 K, x2 = 0.5 | 7.19
372.15 K, x2 = 0.5263 | 6.56
374.15 K, x2 = 0.5556 | 5.89

[Cl-].[Cl-].[Co+2] + CCCCCCCC[N+](CCCCCCCC)(CCCCCCCC)CCCCCCCC.[Br-] + CCCCCCCCCC(=O)O
Conditions | viscosity [mPa·s]
296.1 K, 101.3 kPa, x2 = 0.4, x1 = 0.2 | 55000

CC(C)O + CCCC[n+]1ccn(C)c1.F[B-](F)(F)F
101 kPa, x2 = 0
Conditions | viscosity [mPa·s]
293.15 K | 2.42
298.15 K | 2.08
303.15 K | 1.8
308.15 K | 1.56
313.15 K | 1.36
318.15 K | 1.19
323.15 K | 1.05

CCCC[n+]1ccn(C)c1.O=S(=O)([O-])C(F)(F)F + CCOC(C)=O
100 kPa
Conditions | viscosity [mPa·s]
298.15 K, x1 = 0.6095 | 28.3
298.15 K, x1 = 0.8932 | 55
303.15 K, x1 = 0.3978 | 13.4
303.15 K, x1 = 1 | 67
313.15 K, x1 = 0.0991 | 0.84
313.15 K, x1 = 1 | 43.7
318.15 K, x1 = 0.1916 | 2.57
318.15 K, x1 = 1 | 36.3
323.15 K, x1 = 0.7987 | 18.2
323.15 K, x1 = 0.8932 | 22.4

CCCC[n+]1ccn(C)c1.O=S(=O)([O-])C(F)(F)F + OCCO
100 kPa
Conditions | viscosity [mPa·s]
298.15 K, x1 = 0.0926 | 15.47
298.15 K, x1 = 0.6922 | 33.7
303.15 K, x1 = 0.0926 | 12.53
303.15 K, x1 = 0.4999 | 21.87
303.15 K, x1 = 0.6922 | 27.7
308.15 K, x1 = 0.2985 | 13.86
308.15 K, x1 = 0.4999 | 18.33
308.15 K, x1 = 0.6922 | 23.66
308.15 K, x1 = 0.7966 | 29
313.15 K, x1 = 0.2985 | 11.67
313.15 K, x1 = 0.4999 | 15.58
313.15 K, x1 = 0.6922 | 20.18
318.15 K, x1 = 0.0926 | 7.45
318.15 K, x1 = 0.4999 | 13.4
323.15 K, x1 = 0.1936 | 6.92
323.15 K, x1 = 0.3912 | 9.9
323.15 K, x1 = 0.7966 | 18.19

CCCCCCCCn1cc[n+](C)c1.F[B-](F)(F)F + CCCOC(C)=O
298.15 K, 101 kPa
Conditions | viscosity [mPa·s]
x2 = 0.3984 | 44.84
x2 = 0.4496 | 33.85
x2 = 0.5551 | 18.72

CC(C)O + CCCCCC[N+](CC)(CC)CC.O=S(=O)([N-]S(=O)(=O)C(F)(F)F)C(F)(F)F
100 kPa, x1 = 1
Conditions | viscosity [mPa·s]
298.15 K | 2.05
303.15 K | 1.73
308.15 K | 1.49
